According to article PMC8084583, “Monobenzone, a Novel and Potent KDM1A Inhibitor, Suppresses Migration of Gastric Cancer Cells” (Frontiers in Pharmacology, 2021):

Target: KDM1A (Homo sapiens, UniProt O60341)
Assay: HRP-coupled fluorometric demethylase assay with recombinant KDM1A (H2O2/HRP counter-screen); dialysis and dilution reversibility; cell thermal shift in MGC-803
Assay type: biochemical

Structure (SMILES): Oc1ccc(OCc2ccccc2)cc1 [monobenzone]
- IC50: 451 nM
